From ChEMBL document CHEMBL1131696, “Highly constrained dipeptoid analogues containing a type II' beta-turn mimic as novel and selective CCK-A receptor ligands” (Bioorg Med Chem Lett, 1999)

Legend:
[1] = molecular target: T1, Gastrin/cholecystokinin type B receptor (Mus musculus, UniProt P56481); assay: Inhibition of [3H]propionyl-CCK-8 binding to mouse cerebral cortex membrane cholecystokinin-B (CCK-B) receptor; type: tissue-based
T1 sequence (P56481 whole entry): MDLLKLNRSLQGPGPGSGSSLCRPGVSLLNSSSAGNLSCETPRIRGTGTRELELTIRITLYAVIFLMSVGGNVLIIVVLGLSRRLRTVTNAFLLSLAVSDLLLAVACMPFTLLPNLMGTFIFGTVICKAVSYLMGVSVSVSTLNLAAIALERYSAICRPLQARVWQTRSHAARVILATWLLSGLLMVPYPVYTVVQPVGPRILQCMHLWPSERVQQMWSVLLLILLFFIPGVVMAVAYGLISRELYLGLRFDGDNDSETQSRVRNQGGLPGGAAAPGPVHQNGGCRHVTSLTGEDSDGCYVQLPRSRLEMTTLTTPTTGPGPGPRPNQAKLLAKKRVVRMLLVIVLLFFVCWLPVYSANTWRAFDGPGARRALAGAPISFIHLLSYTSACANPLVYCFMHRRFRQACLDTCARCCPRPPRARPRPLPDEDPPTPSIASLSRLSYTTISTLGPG

[2] = molecular target: T2, Cholecystokinin receptor type A (Rattus norvegicus, UniProt P30551); assay: Inhibition of [3H]propionyl-CCK-8 binding to rat pancreas cholecystokinin-A (CCK-A) receptor
T2 sequence (P30551 whole entry): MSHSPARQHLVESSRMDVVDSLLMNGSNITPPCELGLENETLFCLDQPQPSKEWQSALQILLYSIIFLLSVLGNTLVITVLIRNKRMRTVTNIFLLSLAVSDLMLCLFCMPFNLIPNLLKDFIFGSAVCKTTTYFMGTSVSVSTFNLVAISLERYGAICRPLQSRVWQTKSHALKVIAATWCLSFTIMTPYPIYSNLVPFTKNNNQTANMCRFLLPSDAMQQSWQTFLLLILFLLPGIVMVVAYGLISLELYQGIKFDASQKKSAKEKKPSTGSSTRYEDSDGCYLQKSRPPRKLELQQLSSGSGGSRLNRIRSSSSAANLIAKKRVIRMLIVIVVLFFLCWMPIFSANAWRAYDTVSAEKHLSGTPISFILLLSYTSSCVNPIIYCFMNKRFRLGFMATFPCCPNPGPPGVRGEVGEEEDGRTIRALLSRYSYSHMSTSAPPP

O=C(O)C[C@@H](Cc1ccccc1)NC(=O)[C@@H]1Cc2c([nH]c3ccccc23)[C@@H]2C[C@H](NC(=O)OCc3ccccc3)C(=O)N12
IC50 [1]: > 10 µM
IC50 [2]: 1000 nM

C[Si](C)(C)CCOC(=O)C[C@H](Cc1ccccc1)NC(=O)[C@@H]1Cc2c([nH]c3ccccc23)[C@H]2C[C@H](NC(=O)OCc3ccccc3)C(=O)N21
IC50 [1]: 2.4 µM
IC50 [2]: 220 nM

O=C(O)C[C@H](Cc1ccccc1)NC(=O)[C@@H]1Cc2c([nH]c3ccccc23)[C@H]2C[C@H](NC(=O)OCc3ccccc3)C(=O)N21
IC50 [1]: > 10 µM
IC50 [2]: 88 nM

O=C(O)C[C@H](Cc1ccccc1)NC(=O)[C@@H]1Cc2c([nH]c3ccccc23)[C@@H]2C[C@H](NC(=O)OCc3ccccc3)C(=O)N12
IC50 [1]: > 10 µM
IC50 [2]: 635 nM

CC(C)(C)OC(=O)N[C@H]1C[C@@H]2c3[nH]c4ccccc4c3C[C@@H](C(=O)N[C@@H](CC(=O)O)Cc3ccccc3)N2C1=O
IC50 [1]: > 10 µM
IC50 [2]: 4480 nM

C[Si](C)(C)CCOC(=O)C[C@@H](Cc1ccccc1)NC(=O)[C@@H]1Cc2c([nH]c3ccccc23)[C@@H]2C[C@H](NC(=O)OCc3ccccc3)C(=O)N12
IC50 [1]: > 10 µM
IC50 [2]: 1400 nM

C[Si](C)(C)CCOC(=O)C[C@H](Cc1ccccc1)NC(=O)[C@@H]1Cc2c([nH]c3ccccc23)[C@@H]2C[C@H](NC(=O)OCc3ccccc3)C(=O)N12
IC50 [1]: > 10 µM
IC50 [2]: 460 nM

CC(C)(C)OC(=O)N[C@H]1C[C@@H]2c3[nH]c4ccccc4c3C[C@@H](C(=O)N[C@H](CC(=O)O)Cc3ccccc3)N2C1=O
IC50 [1]: > 10 µM
IC50 [2]: > 10000 nM

C[Si](C)(C)CCOC(=O)C[C@@H](Cc1ccccc1)NC(=O)[C@@H]1Cc2c([nH]c3ccccc23)[C@H]2C[C@H](NC(=O)OCc3ccccc3)C(=O)N21
IC50 [1]: 1.5 µM
IC50 [2]: 180 nM

O=C(O)C[C@@H](Cc1ccccc1)NC(=O)[C@@H]1Cc2c([nH]c3ccccc23)[C@H]2C[C@H](NC(=O)OCc3ccccc3)C(=O)N21
IC50 [1]: 2.7 µM
IC50 [2]: 7.4 nM
